{
  "source": "paper PMC9645344",
  "about": "“Serotonin-releasing agents with reduced off-target effects” (Molecular Psychiatry, 2022)",
  "key": {"human DAT": {"target": "T1, human DAT (Homo sapiens, UniProt Q01959)", "T1 construct": "expressed in transfected cells", "T1 sequence (Q01959 whole entry, canonical isoform)": "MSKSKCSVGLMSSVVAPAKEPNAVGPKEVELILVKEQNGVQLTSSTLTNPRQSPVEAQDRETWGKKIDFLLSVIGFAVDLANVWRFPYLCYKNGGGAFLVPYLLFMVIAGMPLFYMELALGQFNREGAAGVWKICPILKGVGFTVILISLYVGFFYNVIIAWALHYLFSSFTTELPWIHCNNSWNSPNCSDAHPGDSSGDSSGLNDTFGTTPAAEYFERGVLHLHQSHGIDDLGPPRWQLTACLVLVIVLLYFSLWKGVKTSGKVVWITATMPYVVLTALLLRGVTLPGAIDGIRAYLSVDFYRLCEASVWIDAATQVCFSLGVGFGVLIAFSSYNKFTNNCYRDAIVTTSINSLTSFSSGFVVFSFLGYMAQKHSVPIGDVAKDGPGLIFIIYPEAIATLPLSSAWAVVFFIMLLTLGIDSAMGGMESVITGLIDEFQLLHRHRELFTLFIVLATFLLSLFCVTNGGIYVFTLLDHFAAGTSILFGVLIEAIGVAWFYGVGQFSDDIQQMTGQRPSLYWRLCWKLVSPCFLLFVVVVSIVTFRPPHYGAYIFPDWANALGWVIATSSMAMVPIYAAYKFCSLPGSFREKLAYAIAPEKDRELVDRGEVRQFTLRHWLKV", "test": "DAT uptake inhibition assay in HEK293 cells ([3H]MPP+)", "format": "cell-based", "method": "Human embryonic kidney 293 (HEK293) cells stably expressing the human isoforms of either DAT or SERT were maintained in Dulbecco’s Modified Eagle Medium (DMEM), supplemented with 10% fetal calf serum at a subconfluent state in humidified atmosphere (5% CO2, 37 °C).\nUptake inhibition assays were performed as described earlier. Briefly, HEK293 cells stably expressing human SERT or DAT were seeded onto poly- D-lysine (PDL) coated 96-well plates (40,000 cells well^−1) the day before an experiment. Prior to the uptake inhibition assay, DMEM was replaced with Krebs-HEPES buffer (KHB, 25 mM HEPES, 120 mM NaCl, 5 mM KCl, 1.2 mM CaCl2, 1.2 mM MgSO4, and 5 mM D-glucose, pH 7.3) and the cells were preincubated with test drugs for 5 min at room temperature. Uptake assays were initiated by adding 20 nM [^3H]MPP^+ to DAT cells or 100 nM [^3H]5-HT to SERT cells. After 180 s (DAT) or 60 s (SERT), the tritiated substrate was removed by aspiration. Cells were washed once with ice-cold KHB, then lysed in 1% sodium dodecyl sulfate (SDS) and subjected to liquid scintillation counting to quantify tritium accumulated in each sample. Non-specific uptake was determined in the presence of mazindol (1 µM) for DAT or paroxetine (1 µM) for SERT and subtracted throughout."}, "extracellular DA": {"test_system": "extracellular DA", "design": "method as in PMID 23178523", "settings": "racemic; cited from earlier work"}},
  "data": [
    {"smiles": "CNC(C)C(=O)c1ccc(C(F)(F)F)cc1", "note": "(centres unmarked) [4-TFMMC, 4-trifluoromethyl-N-methylcathinone]", "values": [
      {"measurement": "IC50", "setting": "human DAT", "value": "> 100", "unit": "µM"},
      {"measurement": "extracellular DA", "setting": "extracellular DA", "value": "did not affect extracellular DA"}
    ]}
  ]
}
